# What was measured:
# Format in all cases: biochemical
# human JAK2 = molecular target: T1, human JAK2 (Homo sapiens, UniProt O60674); assay: JAK kinase assay (ELISA or Alphascreen), Jak2; details: standard conditions, read-out: Jak2 inhibition of enzyme activity
# T1 construct: The kinase domain of human JAK2 was amplified from U937mRNA; His tag (pFastBac HTc vector; nickel chelate purification) (N); made in house; host or cells: baculovirus; Sf9 for virus, High Five insect cells for production
# T1 sequence (O60674 849-1124 limits assumed): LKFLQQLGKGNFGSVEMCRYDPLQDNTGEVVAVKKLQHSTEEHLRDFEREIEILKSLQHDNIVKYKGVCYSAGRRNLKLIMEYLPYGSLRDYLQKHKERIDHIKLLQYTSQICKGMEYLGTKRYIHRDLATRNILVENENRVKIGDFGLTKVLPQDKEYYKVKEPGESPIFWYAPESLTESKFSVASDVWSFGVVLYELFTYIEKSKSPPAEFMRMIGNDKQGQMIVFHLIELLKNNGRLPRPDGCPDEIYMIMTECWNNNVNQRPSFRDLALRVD
# From the text: The kinase domain of human JAK2 was amplified from U937mRNA using the polymerase chain reaction with the following primers: […]
# JAK2 PCR products were cloned into the pFastBac HTc expression vector (Gibco) via the Sal I and Not I sites. The JAK2 plasmid was then transformed into competent DHL10Bac cells (Gibco), and the recombinant baculovirus produced prepared for transfection into Sf9 insect cells.
# (§1) Baculovirus preparations from each of the JAK family members were infected into five litres of High Five cells (Invitrogen) grown in High Five serum free medium (Invitrogen) to a cell density of approximately 1-2×10^6 cells/ml. Cells are infected with virus at a MOI of 0.8-3.0. Cells were harvested and lysed. JAK kinase domains were purified by affinity chromatography on a Probond (Invitrogen) nickel chelate affinity column.
# (§2) Kinase assays were performed either in a 96 well capture-based ELISA assay or in 384 well Optiplates (Packard) using an Alphascreen Protein Tyrosine Kinase kit. In either case using approximately 15 μg of affinity purified PTK domain in the presence of 50 mM HEPES, pH 7.5, 10 mM MgCl2 150 mM NaCl and 10 μM-1 mM ATP. The biotinylated substrate biotin-EGPWLEEEEEAYGWMDF-NH2 (final concentration 5 μM) was used as substrate. In the ELISA assay tyrosine phosphorylation was quantitated following transfer to an avidin coated ELISA plate using peroxidase-linked anti-phospho-tyrosine antibody PY20. In the Alphascreen assay, Alphascreen phosphotyrosine acceptor beads followed by streptavidin donor beads were added under subdued light. The ELISA plates were read on a BMG Fluorostar, the Alphascreen plates were read on a Packard Fusion Alpha. Inhibitors were added to the assays fifteen minutes prior to the addition of ATP. Inhibitors were added in aqueous DMSO, with DMSO concentrations never exceeding 1%.
# human JAK3 = molecular target: T2, human JAK3 (Homo sapiens, UniProt P52333); assay: JAK kinase assay (ELISA or Alphascreen), Jak3; details: standard conditions, read-out: Jak3 inhibition of enzyme activity
# T2 construct: The kinase domain of human JAK3 was amplified from U937mRNA; His tag (pFastBac HTb vector; nickel chelate purification) (N); made in house; host or cells: baculovirus; Sf9 for virus, High Five insect cells for production
# T2 sequence (P52333 822-1111 limits assumed): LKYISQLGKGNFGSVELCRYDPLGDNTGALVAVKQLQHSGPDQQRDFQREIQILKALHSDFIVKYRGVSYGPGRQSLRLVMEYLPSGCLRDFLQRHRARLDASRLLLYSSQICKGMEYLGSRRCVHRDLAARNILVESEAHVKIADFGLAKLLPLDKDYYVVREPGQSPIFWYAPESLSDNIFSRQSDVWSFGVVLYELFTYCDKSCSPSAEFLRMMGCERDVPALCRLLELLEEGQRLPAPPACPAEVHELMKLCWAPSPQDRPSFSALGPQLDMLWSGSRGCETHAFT
# From the text: The kinase domain of human JAK3 was amplified from U937mRNA using the polymerase chain reaction with the following primers: […]
# JAK3 PCR products were cloned into the pFastBac HTb expression vector (Gibco) via the Xho I and Kpn I sites. The JAK3 plasmid was then transformed into competent DH10Bac cells (Gibco), and the recombinant baculovirus produced prepared for transfection into Sf9 insect cells.
# as §1, §2
# kdr = kdr (Homo sapiens, UniProt P35968); assay: Kinase assay (ELISA or Alphascreen), kdr; details: standard conditions, read-out: kdr inhibition of enzyme activity
# Sequence of kdr (P35968 834-1162 limits assumed, species assumed): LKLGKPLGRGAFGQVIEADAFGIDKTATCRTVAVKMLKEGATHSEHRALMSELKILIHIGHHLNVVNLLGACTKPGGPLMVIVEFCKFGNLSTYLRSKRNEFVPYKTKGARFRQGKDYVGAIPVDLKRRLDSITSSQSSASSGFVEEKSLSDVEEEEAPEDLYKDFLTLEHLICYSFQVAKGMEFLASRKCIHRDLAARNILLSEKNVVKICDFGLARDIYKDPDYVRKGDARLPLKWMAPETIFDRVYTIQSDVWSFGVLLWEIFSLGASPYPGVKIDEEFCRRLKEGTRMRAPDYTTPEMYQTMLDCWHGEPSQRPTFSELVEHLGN
# Protocol: as §2
SMILES,inhibition at 20 µM (human JAK2) [%],inhibition at 20 µM (human JAK3) [%],inhibition at 20 µM (kdr) [%]
CC(Nc1cncc(-n2cnc3ccccc32)n1)c1ccc(-n2ccnc2)cc1 (stereo not drawn),< 50,< 50,–
CC(Nc1cncc(-n2cnc3cc(CN(C)C)ccc32)n1)c1ccc(F)cc1 (stereo not drawn),< 50,< 50,≥ 50
O=S(=O)(Nc1ccc(-c2cncc(-n3cnc4ccccc43)n2)cc1)c1ccccc1,≥ 50,≥ 50,–
COc1ccc2c(c1)CCC2Nc1cncc(-n2cnc3cc(C#N)ccc32)n1 (stereo not drawn),< 50,< 50,–
Cc1ncc(-n2cnc3cc(C#N)ccc32)nc1N[C@@H](C)c1ccccc1,≥ 50,≥ 50,≥ 50
N#Cc1ccc2ncn(-c3cncc(NC4Cc5ccccc5C4)n3)c2c1,< 50,< 50,–
C[C@H](Nc1cncc(-n2ncc3ccccc32)n1)c1ccc(F)cc1,< 50,< 50,–
CNCCN(C)Cc1ccc2ncn(-c3cncc(NC(C)c4ccc(F)cc4)n3)c2c1 (stereo not drawn),< 50,< 50,≥ 50
COc1cccc2c1CCC2Nc1cncc(-n2cnc3cc(C#N)ccc32)n1 (stereo not drawn),< 50,< 50,–
CC1CC(Nc2cncc(-n3cnc4ccc(C#N)cc43)n2)c2ccccc21 (stereo not drawn),< 50,< 50,–
CC(Nc1cncc(-n2cnc3ccccc32)n1)c1ccncc1 (stereo not drawn),< 50,< 50,≥ 50
N#Cc1ccc2c(c1)ncn2-c1cncc(NC2CCc3ccc(O)cc32)n1 (stereo not drawn),< 50,< 50,–
C[C@H](Nc1cncc(-n2cc3ccccc3n2)n1)c1ccc(F)cc1,< 50,< 50,–
C[C@H](Nc1cncc(-n2cnc3cc(CO)ccc32)n1)c1ccc(F)cc1,< 50,< 50,–
CC(Nc1cncc(-n2cnc3cc(CO)ccc32)n1)c1ccc(F)cc1 (stereo not drawn),< 50,< 50,≥ 50
N#Cc1ccc2c(c1)ncn2-c1cncc(NC2Cc3ccccc3C2)n1,< 50,< 50,–
N#Cc1ccc2ncn(-c3cncc(N[C@H]4CCCc5ccccc54)n3)c2c1,< 50,< 50,–
CCN(CC)Cc1ccc2c(c1)ncn2-c1cncc(NC(C)c2ccc(F)cc2)n1 (stereo not drawn),< 50,< 50,≥ 50
c1cncc(-c2cncc(-n3cnc4ccccc43)n2)c1,≥ 50,< 50,–
N#Cc1ccc2ncn(-c3cncc(N4CCc5ccccc5C4)n3)c2c1,< 50,< 50,–

SMILES,inhibition at 20 µM (human JAK2) [%],inhibition at 20 µM (human JAK3) [%],inhibition at 20 µM (kdr) [%]
CC(Nc1cncc(N2CNc3cc(CN4CCN(C)CC4)ccc32)n1)c1ccc(F)cc1 (stereo not drawn),< 50,< 50,≥ 50
C[C@H](Nc1cncc(-n2cnc3cccnc32)n1)c1ccc(F)cc1,< 50,< 50,–
C[C@@H](c1ccccc1)N(C)c1cncc(-n2cnc3cc(C#N)ccc32)n1,< 50,< 50,–
CC(Nc1cncc(-n2cnc3ccc(CN4CCN(C)CC4)cc32)n1)c1ccc(F)cc1 (stereo not drawn),< 50,< 50,–
C[C@H](Nc1cncc(-n2cnc3cc(NS(=O)(=O)c4ccccc4)ccc32)n1)c1ccccc1,≥ 50,≥ 50,–
C[C@H](Nc1cncc(-n2cnc3ccc(CN4CCN(CCN)CC4)cc32)n1)c1ccc(F)cc1,< 50,< 50,–
COc1cccc2c1CCC2Nc1cncc(-n2cnc3ccc(C#N)cc32)n1 (stereo not drawn),< 50,≥ 50,–
C[C@H](Nc1cncc(-n2cnc3ncccc32)n1)c1ccccc1,< 50,< 50,–
C[C@H](Nc1cncc(-n2cnc3ncccc32)n1)c1ccc(F)cc1,< 50,< 50,–
CCCC(Nc1cncc(-n2cnc3ccccc32)n1)c1ccccc1 (stereo not drawn),≥ 50,< 50,–
Cc1ncc(-n2cnc3ccc(C#N)cc32)nc1N[C@@H](C)c1ccccc1,≥ 50,≥ 50,–
CCN(CC)Cc1ccc2ncn(-c3cncc(NC(C)c4ccc(F)cc4)n3)c2c1 (stereo not drawn),< 50,< 50,–
C[C@H](Nc1cncc(-n2cnc3ccc(CN4CCC(O)CC4)cc32)n1)c1ccc(F)cc1,≥ 50,< 50,–
C[C@H](Nc1cncc(-n2cnc3ccc(CN4CCCCC4)cc32)n1)c1ccc(F)cc1,≥ 50,≥ 50,–
CC(Nc1cncc(-n2cnc3cc(CNCCN(C)C)ccc32)n1)c1ccc(F)cc1 (stereo not drawn),< 50,< 50,–
c1ccc2c(c1)ncn2-c1cncc(-c2ccncc2)n1,≥ 50,< 50,–
C[C@H](Nc1cncc(-n2cnc3cccnc32)n1)c1ccccc1,< 50,< 50,–
N#Cc1ccc2c(c1)ncn2-c1cncc(NC2CCc3cc(Br)ccc32)n1 (stereo not drawn),< 50,< 50,–
N#Cc1ccc2c(c1)ncn2-c1cncc(N2CCc3ccccc3C2)n1,< 50,< 50,–

# Further lines, results first:
inhibition at 20 µM (human JAK2) [%],inhibition at 20 µM (human JAK3) [%],inhibition at 20 µM (kdr) [%],SMILES
< 50,≥ 50,–,N#Cc1ccc2ncn(-c3cncc(NC4CCc5cc(Br)ccc54)n3)c2c1 (stereo not drawn)
< 50,< 50,–,CC(Nc1cncc(-n2cnc3ccccc32)n1)c1cccc(Cl)c1 (stereo not drawn)
≥ 50,≥ 50,–,CC(Nc1cncc(-n2cnc3ccc(C#N)cc32)n1)c1ccc(F)c(F)c1 (stereo not drawn)
≥ 50,< 50,–,Cc1ccc([C@H](C)Nc2cncc(-n3cnc4cc(C#N)ccc43)n2)cc1
≥ 50,≥ 50,–,CC(Nc1cncc(-n2cnc3cc(C#N)ccc32)n1)c1ccc(F)c(F)c1 (stereo not drawn)
≥ 50,< 50,–,CC(Nc1cncc(-n2cnc3ccc(C#N)cc32)n1)c1cccc(C(F)(F)F)c1 (stereo not drawn)
≥ 50,< 50,–,CC(Nc1cncc(-n2cnc3cc(C#N)ccc32)n1)c1cc(F)cc(F)c1 (stereo not drawn)
< 50,< 50,–,CC(Nc1cncc(-n2cnc3cc(C#N)ccc32)n1)c1cccc(C(F)(F)F)c1 (stereo not drawn)
< 50,< 50,–,CC(Nc1cncc(-n2cnc3ccncc32)n1)c1ccc(F)cc1 (stereo not drawn)
≥ 50,≥ 50,–,CC(Nc1cncc(-n2cnc3cc(C#N)ccc32)n1)c1cccc(F)c1 (stereo not drawn)
< 50,< 50,–,CC(Nc1cncc(-n2cnc3ccc(C#N)cc32)n1)c1cccc2ccccc12 (stereo not drawn)
≥ 50,≥ 50,–,CC(Nc1cncc(-n2cnc3ccc(C#N)cc32)n1)c1ccc(F)c(Cl)c1 (stereo not drawn)
< 50,< 50,–,CC(Nc1cncc(-n2cnc3cc(C#N)ccc32)n1)c1cccc(OC(F)(F)F)c1 (stereo not drawn)
≥ 50,< 50,–,C[C@H](Nc1cncc(-n2cnc3ccc(-c4nn[nH]n4)cc32)n1)c1ccc(F)cc1
< 50,< 50,–,CC(Nc1cncc(-n2cnc3ccc(C#N)cc32)n1)c1cccc(OC(F)(F)F)c1 (stereo not drawn)
< 50,< 50,–,N#Cc1ccc2ncn(-c3cncc(Cl)n3)c2c1
≥ 50,≥ 50,–,C[C@H](Nc1cncc(-n2cnc3ccc(C#N)cc32)n1)c1ccccc1
≥ 50,< 50,–,CC(Nc1cncc(-n2cnc3cc(C#N)ccc32)n1)c1ccccn1 (stereo not drawn)
< 50,< 50,–,N#Cc1ccc2ncn(-c3cncc(NC4CCc5cc(F)ccc54)n3)c2c1 (stereo not drawn)
≥ 50,≥ 50,–,CC(Nc1cncc(-n2cnc3ccc(C#N)cc32)n1)c1ccccn1 (stereo not drawn)
≥ 50,≥ 50,–,CC[C@H](Nc1cncc(-n2cnc3ccc(C#N)cc32)n1)c1ccccc1
≥ 50,≥ 50,–,C[C@H](Nc1cncc(-n2cnc3cc(C#N)ccc32)n1)c1ccccc1
